From patent US20250304549A1, “HYDROXYAMIDE DERIVATIVE AND USE THEREOF” (SICHUAN HUIYU PHARMACEUTICAL CO., LTD., priority 2022, published 2025)
Where a name gives a salt, the structure may show the parent alone.

Tests used:
[1] = test system: DU145 cells; test: In vitro cell inhibition assay - DU145 cell proliferation (CellTiter-Glo); type: cell-based
Outline: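 DU145 cells were seeded at 1×10^3 per well, exposed next day to an 8-point, 5-fold compound dilution series in RPMI-640 with 10% FBS, and incubated 6 days at 37° C. Viable cells were measured by CellTiter-Glo luminescence, and IC50 was fitted from inhibition rates relative to no-inhibitor and no-cell controls.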

[2] = test system: NCI-H526 cells; test: In vitro cell inhibition assay - NCI-H526 cell proliferation (CellTiter-Glo); type: cell-based; conditions: H526 small cell lung cancer cell proliferation, 5 days
Outline: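 NCI-H526 cells plated at 1×10^3 per well overnight, then treated with 8 concentrations (5-fold dilutions) in RPMI-640 with 10% FBS for 5 days at 37° C., 5% CO2. Viable cells quantified by CellTiter-Glo luminescence; IC50 fitted from inhibition rates relative to no-inhibitor and no-cell controls.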

[3] = test system: NCI-H1417 cells; test: In vitro cell inhibition assay - H1417 cell proliferation (CellTiter-Glo); type: cell-based
Outline: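 Cells exposed to 8 compound concentrations (5-fold dilutions) in BEGM with 10% FBS for 7 days at 37° C., 5% CO2. Viable cells measured by CellTiter-Glo luminescence; inhibition versus no-inhibitor and no-cell controls, IC50 fitted.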

[4] = test system: NCI-H69 cells; test: In vitro cell inhibition assay - NCI-H69 cell proliferation (CellTiter-Glo); type: cell-based
Outline: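 CellTiter-Glo luminescence measured viability after a 7-day, 37° C. exposure of NCI-H69 cells (1×10^3/well) to an 8-point, 5-fold dilution series in RPMI-640/20% FBS. Inhibition was normalised to untreated and cell-free wells and IC50 derived by curve fitting.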

[5] = molecular target: LSD1 (Homo sapiens (Human), UniProt O60341); test: In vitro enzyme inhibition assay - LSD1 (HTRF); type: biochemical
[6] = molecular target: pan-HDAC; test: In vitro enzyme inhibition assay - HDAC (HDAC-Glo I/II), pan-HDAC; type: biochemical
Outline: (§1)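 Eight compound concentrations (5-fold steps from a 1 mM DMSO stock) tested against pan-HDAC, HDAC1 and HDAC8 with HDAC-Glo I/II reagents, luminescence read-out. Percent inhibition normalized to no-inhibitor and no-enzyme wells; IC50 derived by four-parameter logistic fit.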

[7] = molecular target: HDAC8 (Homo sapiens (Human), UniProt Q9BY41); test: In vitro enzyme inhibition assay - HDAC (HDAC-Glo I/II), HDAC8; type: biochemical; conditions: read-out: HDAC IC50 (nM) HDAC 8
HDAC8, sequence (Q9BY41 whole entry): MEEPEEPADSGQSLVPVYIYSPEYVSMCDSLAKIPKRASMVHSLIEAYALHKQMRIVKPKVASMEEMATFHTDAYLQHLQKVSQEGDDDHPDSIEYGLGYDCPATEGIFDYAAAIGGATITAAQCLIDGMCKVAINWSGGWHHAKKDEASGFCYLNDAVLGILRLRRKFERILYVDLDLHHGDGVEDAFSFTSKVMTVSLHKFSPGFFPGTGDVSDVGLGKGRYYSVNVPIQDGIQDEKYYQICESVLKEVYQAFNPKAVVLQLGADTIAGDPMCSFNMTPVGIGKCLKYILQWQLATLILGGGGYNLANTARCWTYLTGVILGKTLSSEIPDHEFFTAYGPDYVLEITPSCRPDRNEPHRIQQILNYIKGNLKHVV
Outline: as §1

[8] = Homo sapiens, DU-145, Du145 prostate cancer cell proliferation
[9] = Homo sapiens, NCI-H1417, H1417 small cell lung cancer cell proliferation
[10] = Homo sapiens, NCI-H69, H69 small cell lung cancer cell proliferation
[11] = Du145 prostate cancer cell proliferation
[12] = H1417 small cell lung cancer cell proliferation
[13] = H69 small cell lung cancer cell proliferation

| SMILES | IC50 [1, 8] [µM] | IC50 ([2]; Homo sapiens, NCI-H526, 120 h) [µM] | IC50 [3, 9] [µM] | IC50 [4, 10] [µM] | IC50 [1, 11] [µM] | IC50 [2] [µM] | IC50 [3, 12] [µM] | IC50 [5] [µM] | IC50 [4, 13] [µM] | IC50 [6] [nM] | IC50 [7] [nM] |
| --- | --- | --- | --- | --- | --- | --- | --- | --- | --- | --- | --- |
| COc1ccc(-c2cnc(N3CCC(NCc4ccc(/C=C/C(=O)NO)cc4)CC3)c(F)c2-c2ccc(C#N)c(F)c2)cc1O [Example 76, (E)-3-(4-(((1-(4-(4-cyano-3-fluorophenyl)-3-fluoro-5-(3-hydroxy-4-methoxyphenyl)pyridin-2-yl)piperidin-4-yl)amino)methyl)phenyl)-N-hydroxyacrylamide formate] | 0.011 | 0.00827 | 0.0117 | 0.00396 |  |  |  |  |  |  |  |
| COc1ncc(-c2cnc(N3CCC(NCc4ccc(/C=C/C(=O)NO)cc4)CC3)c(C#N)c2-c2ccc(C#N)c(F)c2)cc1O [Example 123, (E)-3-(4-((1-(5-Cyano-4-(4-cyano-3-fluorophenyl)-5′-hydroxy-6′-methoxy-[3,3′-bipyridin]-6-yl)piperidin-4-yl)amino)methyl) phenyl)-N-hydroxyacrylamide trifluoroacetate] |  |  |  |  | 0.112 | 0.0713 | 0.0042 | 0.00074 | 0.0763 |  |  |
| COc1ccc(-c2cnc(N3CCC(NCc4ccc(/C=C/C(=O)NO)cc4)CC3)c(C#N)c2-c2ccc(C#N)c(F)c2)cc1O [Example 37, (E)-3-(4-(((1-(3-cyano-4-(4-cyano-3-fluorophenyl)-5-(3-hydroxy-4-methoxyphenyl)pyridin-2-yl)piperidin-4-yl)amino)methyl)phenyl)-N-hydroxyacrylamide hydrochloride] | 0.026 | 0.0103 | 0.00656 | 0.00852 |  |  |  | 0.00195 |  |  |  |
| COc1ccc(-c2cnc(N3CCC(NCc4ccc5cc(C(=O)NO)sc5c4)CC3)c(C#N)c2-c2ccc(C#N)c(F)c2)cc1O [Example 126, 6-(1-(3-Cyano-4-(4-cyano-3-fluorophenyl)-5-(3-hydroxy-4-methoxyphenyl)pyridin-2-yl)piperidin-4-yl)amino)methyl)-N-hydroxybenzothio phene-2-carboxamide formate] | 0.715 | 0.28 | 0.00176 | 0.284 |  |  |  | 0.00111 |  | 197 | 132 |
| COc1ccc(-c2cnc(N3CCC(NCc4ccc(/C=C/C(=O)NO)nc4)CC3)c(C#N)c2-c2ccc(C#N)c(F)c2)cc1O [Example 117, (E)-3-(5-((1-(3-Cyano-4-(4-cyano-3-fluorophenyl)-5-(3-hydroxy-4-methoxyphenyl)pyridin-2-yl)piperidin-4-yl)amino)methyl) pyridin-2-yl)-N-hydroxyacrylamide formate] |  |  |  |  | 0.0104 | 0.00454 | 0.0017 | 0.00036 | 0.00421 | 0.8 | 13 |
| COc1cc(-c2cnc(N3CCC(NCc4cnc(/C=C/C(=O)NO)nc4)CC3)c(C#N)c2-c2ccc(C#N)c(F)c2)ccc1O [Example 96, (E)-3-(5-((1-(3-Cyano-4-(4-cyano-3-fluorophenyl)-5-(4-hydroxy-3-methoxyphenyl)pyridin-2-yl)piperidin-4-yl)amino)methyl) pyrimidin-2-yl)-N-hydroxyacrylamide formate] | 0.149 | 0.108 | 0.0742 | 0.101 |  |  |  | 0.0399 |  | 16.4 | 16.3 |
| COc1ccc(-c2cnc(N3CCCC(NCc4ccc(/C=C/C(=O)NO)cc4)CC3)c(C#N)c2-c2ccc(C#N)c(F)c2)cc1O (centres unmarked) [Example 149, (E)-3-(4-(((1-(3-Cyano-4-(4-cyano-3-fluorophenyl)-5-(3-hydroxy-4-methoxyphenyl)pyridin-2-yl)azepan-4-yl)amino)methyl)phenyl)-N-hydroxyacrylamide formate] | 0.0339 | 0.0145 | 0.00208 | 0.0236 |  |  |  |  |  |  |  |
| COc1ccc(-c2ccc(N3CCC(NCc4ccc(/C=C/C(=O)NO)cc4)CC3)c(C#N)c2-c2ccc(C#N)c(F)c2)cc1O [Example 84, (E)-3-(4-(((1-(3′,4″-dicyano-3″-fluoro-3-hydroxy-4-methoxy-[1,1′:2′,1″-terphenyl]-4′-yl)piperidin-4-yl)amino)methyl)phenyl)-N-hydroxyacrylamide] | 0.116 | 0.0684 | 0.004 | 0.0329 |  |  |  | 0.00062 |  | 5.45 | 73.6 |
| Cc1ccc(-c2cnc(N3CCC(NCc4cnc(/C=C/C(=O)NO)nc4)CC3)c(C#N)c2-c2ccc(C#N)c(F)c2)cc1O [Example 148, (E)-3-(5-(((1-(3-Cyano-4-(4-cyano-3-fluorophenyl)-5-(3-hydroxy-4-methylphenyl)pyridin-2-yl)piperidin-4-yl)amino)methyl)pyrimidin-2-yl)-N-hydroxyacrylamide formate] | 0.0218 | 0.00622 | 0.00264 | 0.0131 |  |  |  |  |  |  |  |
| COc1ccc(-c2cnc(N3CCC(NCc4ccc(/C=C/C(=O)NO)cc4)CC3)cc2-c2ccc(C#N)c(F)c2)cc1O [Example 80, (E)-3-(4-(((1-(4-(4-cyano-3-fluorophenyl)-5-(3-hydroxy-4-methoxyphenyl)pyridin-2-yl)piperidin-4-yl)amino)methyl)phenyl)-N-hydroxyacrylamide formate] | 0.0565 | 0.0293 | 0.014 | 0.0278 |  |  |  |  |  | 14.9 | 165 |
| N#Cc1ccc(-c2c(-c3ccc(/C=C/C(=O)NO)c(O)c3)cnc(N3CCC(NCc4ccc(/C=C/C(=O)NO)cc4)CC3)c2C#N)cc1F [Example 90] | 0.0453 | 0.0346 | 0.042 | 0.00649 |  |  |  |  |  |  |  |
| COc1ccc(-c2cnc(N3CCC(NC(=O)CCCCCCC(=O)NO)CC3)c(C#N)c2-c2ccc(C#N)c(F)c2)cc1O [Example 177, N^1-(1-(3-Cyano-4-(4-cyano-3-fluorophenyl)-5-(3-hydroxy-4-methoxyphenyl)pyridin-2-yl)piperidin-4-yl)-N^8-hydroxyoctanediamide formate] | 2.03 |  | 0.00074 | 0.639 |  |  |  | 0.963 |  | 40.2 | 581 |
| COc1ccc(-c2cnc(N3CCC(NCc4cnc(CCC(=O)NO)nc4)CC3)c(C#N)c2-c2ccc(C#N)c(F)c2)cc1O [Example 152, 3-(5-((1-(3-Cyano-4-(4-cyano-3-fluorophenyl)-5-(3-hydroxy-4-methoxyphenyl)pyridin-2-yl)piperidin-4-yl)amino)methyl) pyrimidin-2-yl)-N-hydroxypropanamide hydrochloride] | 0.223 |  | 0.00491 | 0.208 |  |  |  | 0.00115 |  | 2.57 | 131 |
| COc1ccc(-c2cnc(N3CCC(NCCc4ccc(CC(=O)NO)cc4)CC3)c(C#N)c2-c2ccc(C#N)c(F)c2)cc1O [Example 120, 2-(4-(2-((1-(3-Cyano-4-(4-cyano-3-fluorophenyl)-5-(3-hydroxy-4-methoxyphenyl)pyridin-2-yl)piperidin-4-yl)amino)ethyl)phenyl)-N-hydroxyacetamide formate] | 3.77 |  | 0.0111 | 0.938 |  |  |  | 0.00033 |  | 1310 | 1950 |
| N#Cc1ccc(-c2c(-c3ccc4cn[nH]c4c3)cnc(N3CCC(NCc4ccc(/C=C/C(=O)NO)cc4)CC3)c2C#N)cc1F [Example 142, (E)-3-(4-(((1-(3-Cyano-4-(4-cyano-3-fluorophenyl)-5-(1H-indazol-6-yl)pyridin-2-yl)piperidin-4-yl)amino)methyl)phenyl)-N-hydroxyacrylamide formate] | 0.00424 | 0.00461 | 0.00759 | 0.00473 |  |  |  | 0.0018 |  |  |  |
| COc1cc(-c2cnc(N3CCC(NCc4ccc(/C=C/C(=O)NO)cn4)CC3)c(C#N)c2-c2ccc(C#N)c(F)c2)ccc1O [Example 95, (E)-3-(6-((1-(3-Cyano-4-(4-cyano-3-fluorophenyl)-5-(4-hydroxy-3-methoxyphenyl)pyridin-2-yl)piperidin-4-yl)amino)methyl) pyridin-3-yl)-N-hydroxyacrylamide formate] | 0.628 |  | 0.335 | 0.304 |  |  |  | 0.0636 |  | 49 | 87.2 |
